Results as given in ChEMBL document CHEMBL2146470, “Novel Carboxamide-Based Allosteric MEK Inhibitors: Discovery and Optimization Efforts toward XL518 (GDC-0973)” (ACS Med Chem Lett, 2012).

What was measured:
Brain [1] = test: Drug metabolism in brain of nude NCr mouse xenografted with human MDA-MB-231T cells assessed as 3,4-difluoro-2-(2-fluoro-4-iodophenylamino)benzoic acid level at 30 mg/kg, po measured after 24 hrs by LC-MS analysis; format: ADME, organism-based; parameters: dose 30 mg/kg, route oral; settings: in vivo
Plasma [2] = test: Drug metabolism in plasma of nude NCr mouse xenografted with human MDA-MB-231T cells assessed as 3,4-difluoro-2-(2-fluoro-4-iodophenylamino)benzoic acid level at 30 mg/kg, po measured after 24 hrs by LC-MS analysis; format: ADME, organism-based; parameters: dose 30 mg/kg, route oral; settings: in vivo
Plasma [3] = test: Drug metabolism in plasma of nude NCr mouse xenografted with human MDA-MB-231T cells assessed as 3,4-difluoro-2-(2-fluoro-4-iodophenylamino)benzoic acid level at 30 mg/kg, po measured after 2 hrs by LC-MS analysis; format: ADME, organism-based; parameters: dose 30 mg/kg, route oral; settings: in vivo
[4] = Drug metabolism in tumor of nude NCr mouse xenografted with human MDA-MB-231T cells assessed as 3,4-difluoro-2-(2-fluoro-4-iodophenylamino)benzoic acid level at 30 mg/kg, po measured after 24 hrs by LC-MS analysis; format: ADME, organism-based, Neoplasm; parameters: dose 30 mg/kg, route oral; settings: in vivo
[5] = Drug metabolism in tumor of nude NCr mouse xenografted with human MDA-MB-231T cells assessed as 3,4-difluoro-2-(2-fluoro-4-iodophenylamino)benzoic acid level at 30 mg/kg, po measured after 2 hrs by LC-MS analysis; format: ADME, organism-based, Neoplasm; parameters: dose 30 mg/kg, route oral; settings: in vivo
Brain [6] = test: Drug metabolism in brain of nude NCr mouse xenografted with human MDA-MB-231T cells assessed as 3,4-difluoro-2-(2-fluoro-4-iodophenylamino)benzoic acid level at 30 mg/kg, po measured after 2 hrs by LC-MS analysis; format: ADME, organism-based; parameters: dose 30 mg/kg, route oral; settings: in vivo
[7] = target: Dual specificity mitogen-activated protein kinase kinase 1 (Homo sapiens, UniProt Q02750)
Sequence of Dual specificity mitogen-activated protein kinase kinase 1 (Q02750 whole entry): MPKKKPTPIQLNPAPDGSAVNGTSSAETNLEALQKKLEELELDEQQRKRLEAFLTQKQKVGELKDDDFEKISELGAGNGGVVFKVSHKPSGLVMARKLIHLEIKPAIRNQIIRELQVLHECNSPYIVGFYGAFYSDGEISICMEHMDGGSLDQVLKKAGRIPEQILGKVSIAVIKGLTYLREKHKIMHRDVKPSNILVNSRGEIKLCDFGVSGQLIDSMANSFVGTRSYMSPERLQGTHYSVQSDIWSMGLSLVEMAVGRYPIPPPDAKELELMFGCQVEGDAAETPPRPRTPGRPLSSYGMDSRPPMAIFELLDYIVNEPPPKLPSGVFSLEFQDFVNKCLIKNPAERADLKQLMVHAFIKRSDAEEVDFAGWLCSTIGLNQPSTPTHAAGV
Description: Inhibition of MEK1-mediated ERK2 T202/Y204 phosphorylation using biotinylated MBP as substrate preincubated for 30 mins measured after 100 mins by cRAF-MEK-ERK enzyme coupled assay

[8] = target: Dual specificity mitogen-activated protein kinase kinase; MEK1/2 (Homo sapiens, UniProt P36507+Q02750)
Description: Inhibition of MEK-mediated ERK T202/Y204 phosphorylation in human MDA-MB-231T cells after 1 hr by immunoblotting

[9] = Drug metabolism in rat liver microsomes at 15 uM after 30 mins; format: ADME, Microsome; settings: read-out: Drug metabolism
[10] = Apparent permeability across MDCK cells; format: ADME, cell-based, Canis lupus familiaris; settings: dog
[11] = Clearance in Sprague-Dawley rat at 5 mg/kg, po; format: ADME, organism-based; parameters: dose 5 mg/kg, route oral; settings: in vivo
[12] = Half life in Sprague-Dawley rat at 5 mg/kg, po; format: ADME, organism-based; parameters: dose 5 mg/kg, route oral; settings: in vivo
[13] = Oral bioavailability in Sprague-Dawley rat at 5 mg/kg; format: ADME, organism-based; settings: in vivo
Rattus norvegicus = test: Dose normalised AUC (0 to t) in Sprague-Dawley rat at 5 mg/kg, po; format: ADME, organism-based; parameters: dose 5 mg/kg, route oral; settings: in vivo
[14] = Drug metabolism in human liver microsomes at 15 uM after 30 mins; format: ADME, Microsome; settings: read-out: Drug metabolism

| IC50 [7] [nM] | IC50 [8] [nM] | metabolised at 0.5 h, 15 µM [9] [%] | Papp [10] [×10⁻⁶ cm/s] | CL/F [11] [mL/min/kg] | half-life [12] [h] | bioavailability [13] [%] | AUCt/dose (Rattus norvegicus) [µM·h/mg/kg] | metabolised at 0.5 h, 15 µM [14] [%] | Compound | further results |
| --- | --- | --- | --- | --- | --- | --- | --- | --- | --- | --- |
| 19.5 | 102 | – | – | – | – | – | – | – | O=C(O)c1ccc(F)c(F)c1Nc1ccc(I)cc1F | Drug metabolism (Brain [1]): < 0.005 µM; Drug metabolism (Plasma [2]): 0.21 µM; Drug metabolism (Plasma [3]): 0.01 µM; Drug metabolism [4]: < 0.005 µM; Drug metabolism [5]: < 0.005 µM; Drug metabolism (Brain [6]): < 0.005 µM |
| – | – | 80.1 | 39.9 | 139 | 1.5 | 19 | 0.05 | 30.8 | O=C(c1ccc(F)c(F)c1Nc1ccc(I)cc1F)N1CC(O)C1 | – |
| 220 | 81 | – | – | – | – | – | – | – | NC(=O)C1(O)CN(C(=O)c2ccc(F)c(F)c2Nc2ccc(I)cc2F)C1 | – |
| 16 | 164 | – | – | – | – | – | – | – | C[C@@H](N)C1(O)CN(C(=O)c2ccc(F)c(F)c2Nc2ccc(I)cc2F)C1 | – |
| 4.8 | 11 | – | – | – | – | – | – | – | CC(C)(C)NCC1(O)CN(C(=O)c2ccc(F)c(F)c2Nc2ccc(I)cc2F)C1 | – |
| 5.2 | 46 | -4.5 | 9.9 | 13.3 | 11.4 | 58 | 1.03 | 2.6 | C[C@H](N)C1(O)CN(C(=O)c2ccc(F)c(F)c2Nc2ccc(I)cc2F)C1 | – |
| – | – | 40.5 | 21 | 99.3 | 4.9 | 86 | 0.25 | 35.8 | CC(C)NCC1(O)CN(C(=O)c2ccc(F)c(F)c2Nc2ccc(I)cc2F)C1 | – |
| 27 | 29 | – | – | – | – | – | – | – | O=C(c1ccc(F)c(F)c1Nc1ccc(I)cc1F)N1CC(O)(CO)C1 | – |
